Experimental data published in ChEMBL document CHEMBL2434863, “Synthesis and in vitro/in vivo antibacterial activity of oxazolidinones having thiocarbamate at C-5 on the A-ring and an amide- or urea-substituted [1,2,5]triazepane or [1,2,5]oxadiazepane as the C-ring” (Eur J Med Chem, 2013).

What was measured:
Type in all cases: functional
Enterococcus faecalis = experiment: Antibacterial activity against Enterococcus faecalis SR1004 clinical isolate assessed as growth inhibition by broth microdilution method
Staphylococcus aureus [1] = experiment: Antibacterial activity against Staphylococcus aureus Smith assessed as growth inhibition by broth microdilution method
Staphylococcus aureus [2] = experiment: Antibacterial activity against Staphylococcus aureus SR20549 clinical isolate assessed as growth inhibition by broth microdilution method
Haemophilus influenzae = experiment: Antibacterial activity against Haemophilus influenzae SR27914 clinical isolate assessed as growth inhibition by broth microdilution method
Staphylococcus aureus [3] = experiment: Antibacterial activity against linezolid-resistant Staphylococcus aureus NRS271 assessed as growth inhibition by broth microdilution method
Streptococcus pneumoniae = experiment: Antibacterial activity against Streptococcus pneumoniae SR26207 clinical isolate assessed as growth inhibition by broth microdilution method
Enterococcus faecium = experiment: Antibacterial activity against Enterococcus faecium SR7940 clinical isolate assessed as growth inhibition by broth microdilution method
Moraxella catarrhalis = experiment: Antibacterial activity against Moraxella catarrhalis SR26840 clinical isolate assessed as growth inhibition by broth microdilution method

SMILES | MIC (Enterococcus faecalis) [µg/mL] | MIC (Staphylococcus aureus [1]) [µg/mL] | MIC (Staphylococcus aureus [2]) [µg/mL] | MIC (Haemophilus influenzae) [µg/mL] | MIC (Staphylococcus aureus [3]) [µg/mL] | MIC (Streptococcus pneumoniae) [µg/mL] | MIC (Enterococcus faecium) [µg/mL] | MIC (Moraxella catarrhalis) [µg/mL]
CONC(=O)N1CCN(c2c(F)cc(N3C[C@H](CNC(=S)OC)OC3=O)cc2F)CCO1 | 1 | 1 | 0.5 | 16 | 8 | 0.125 | 0.5 | 2
O=C(NO)N1CCN(c2c(F)cc(N3C[C@H](Cn4ccnn4)OC3=O)cc2F)CCN1 | 8 | 4 | 2 | 16 | 64 | 0.5 | 8 | 8
NC(=O)N1CCN(c2c(F)cc(N3C[C@H](CNc4ccon4)OC3=O)cc2F)CCN1 | 1 | 1 | 0.5 | 16 | 16 | 0.125 | 1 | 8
CC(=O)NC[C@H]1CN(c2cc(F)c(N3CCn4c(=O)c5cc(N)cnc5n4CC3)c(F)c2)C(=O)O1 | 2 | 0.5 | 1 | 32 | 8 | 0.25 | 2 | 8
O=C1O[C@@H](Cn2ccnn2)CN1c1cc(F)c(N2CCn3c(=O)c4cccnc4n3CC2)c(F)c1 | 1 | 2 | 0.5 | 32 | 8 | 0.5 | 1 | 8
O=C(C(F)F)N1CCN(c2c(F)cc(N3C[C@H](CNc4ccon4)OC3=O)cc2F)CCN1 | 0.5 | 1 | 0.5 | 16 | 8 | 0.125 | 0.5 | 4
NC(=O)N1CCN(c2c(F)cc(N3C[C@H](Cn4ccnn4)OC3=O)cc2F)CCO1 | 4 | 2 | 1 | 16 | 32 | 1 | 4 | 8
NC(=O)N1CCN(c2c(F)cc(N3C[C@H](Cn4ccnn4)OC3=O)cc2F)CCN1 | 2 | 1 | 1 | 16 | 32 | 0.5 | 4 | 4
CC(=O)NC[C@H]1CN(c2cc(F)c(N3CCn4c(=O)c5cccnc5n4CC3)c(F)c2)C(=O)O1 | 1 | 0.5 | 1 | 16 | 8 | 0.25 | 1 | 4
CC(=O)NC[C@H]1CN(c2cc(F)c(N3CCON(C(C)=O)CC3)c(F)c2)C(=O)O1 | 2 | 4 | 2 | 32 | 32 | 1 | 4 | 4
CONC(=O)N1CCN(c2ccc(N3C[C@H](CNC(=S)OC)OC3=O)cc2F)CCN1 | 0.5 | 1 | 1 | 16 | 16 | 0.25 | 0.5 | 4
CC(=O)N1CCN(c2c(F)cc(N3C[C@H](CNC(C)=S)OC3=O)cc2F)CCO1 | 0.5 | 1 | 0.25 | 8 | 4 | 0.125 | 0.5 | 2
CNC(=O)N1CCN(c2c(F)cc(N3C[C@H](CNC(=S)OC)OC3=O)cc2F)CCO1 | 1 | 0.5 | 0.5 | 32 | 4 | 0.125 | 0.5 | 2
COC(=S)NC[C@H]1CN(c2ccc(N3CCNN(C(=O)NO)CC3)c(F)c2)C(=O)O1 | 1 | 1 | 0.5 | 4 | 16 | ≤ 0.063 | 1 | 4
CNC(=O)N1CCN(c2c(F)cc(N3C[C@H](Cn4ccnn4)OC3=O)cc2F)CCO1 | 4 | 8 | 2 | 32 | 32 | 1 | 2 | 16
O=C1O[C@@H](Cn2ccnn2)CN1c1ccc(N2CCn3c(=O)c4cccnc4n3CC2)c(F)c1 | 4 | 4 | 2 | 32 | 64 | 1 | 4 | 32
CC(=O)NC[C@H]1CN(c2ccc(-c3ccc(N4CCON(C(=O)CO)CC4)nc3)c(F)c2)C(=O)O1 | 1 | 2 | 1 | 16 | 8 | 0.125 | 1 | 16
O=C(NO)N1CCN(c2c(F)cc(N3C[C@H](Cn4ccnn4)OC3=O)cc2F)CCO1 | 4 | 2 | 2 | 16 | 64 | 0.5 | 4 | 8
CC(=O)NC[C@H]1CN(c2ccc(N3CCn4c(=O)c5cccnc5n4CC3)c(F)c2)C(=O)O1 | 2 | 1 | 2 | 32 | 16 | 0.5 | 2 | 16
COC(=S)NC[C@H]1CN(c2cc(F)c(N3CCNN(C(C)=O)CC3)c(F)c2)C(=O)O1 | 1 | 1 | 0.5 | 32 | 4 | 0.125 | 0.5 | 2
Nc1cnc2c(c1)c(=O)n1n2CCN(c2c(F)cc(N3C[C@H](Cn4ccnn4)OC3=O)cc2F)CC1 | 2 | 1 | 1 | 32 | 16 | 0.25 | 2 | 16
O=C(C(F)F)N1CCN(c2c(F)cc(N3C[C@H](Cn4ccnn4)OC3=O)cc2F)CCN1 | 1 | 1 | 0.5 | 16 | 16 | 0.125 | 1 | 8
CC(=O)NC[C@H]1CN(c2cc(F)c(N3CCn4c(=O)c5cc(Br)cnc5n4CC3)c(F)c2)C(=O)O1 | 2 | 1 | 1 | 64 | 8 | 0.25 | 1 | 4
CC(=O)N1CCN(c2c(F)cc(N3C[C@H](Cn4ccnn4)OC3=O)cc2F)CCN1 | 2 | 2 | 1 | 32 | 16 | 1 | 2 | 16
O=C(CO)N1CCN(c2ccc(-c3ccc(N4C[C@H](Cn5ccnn5)OC4=O)cc3F)cn2)CCO1 | 2 | 2 | 1 | 32 | 8 | 0.25 | 1 | 8
CC(=O)NC[C@H]1CN(c2cc(F)c(N3CCn4c(=O)c5cc(Cl)cnc5n4CC3)c(F)c2)C(=O)O1 | 2 | 1 | 1 | 64 | 8 | 0.25 | 1 | 4
